Values quoted from earlier work, collected in patent US20150174247A1, “ORAL PHARMACEUTICAL PREPARATION OF ARIPIPRAZOLE” (MARUISHI PHARMACEUTICAL CO., LTD., priority 2012, published 2015).

O=C1CCc2ccc(OCCCCN3CCN(c4cccc(Cl)c4Cl)CC3)cc2N1 [aripiprazole, 7-{4-[4-(2,3-dichlorophenyl)-1-piperazinyl]-butoxy}-3,4-dihydro-2(1H)-quinolinone]
solubility in acidic range (acidic range (pH 4.5 or less)): highly soluble | solubility in neutral or higher pH range (neutral (pH 5) or higher pH range): less soluble
